These results are taken from EP0755928B1, “5-AMINOFLAVONE DERIVATIVES” (KYOWA HAKKO KOGYO CO., Ltd., priority 1995, dated 1996).

For assay [1], the system named is Human mammary cancer MCF-7 cell. In words: Human mammary cancer MCF-7 cell growth inhibition test (neutral red). The assay is classed as cell-based. Particulars: MCF7, MCF-7 cells, 72 hours, medium with 10^-8M estradiol, neutral red absorbance at 550 nm. The protocol: Human mammary cancer MCF-7 cell growth inhibition test
Each 0.1 ml of MCF-7 cells which had been prepared in a concentration of 5 x 10^4/ml using a medium prepared by adding 10% bovine fetal serum, 10^-8M estradiol (manufactured by Sigma), 100 units/ml penicillin and 100 µg/ml streptomycin to RPMI1640 medium (referred to as Medium B hereinafter) was distributed in each well of 96 well-microtiter plate. […] The supernatant was removed, each 0.1 ml of Medium B containing 0.02% neutral red was added to the residue, the mixture was allowed to stand at 37 °C for 1 hour in a CO2 gas incubator and the cells were stained by neutral red dye. The supernatant was removed and the residue was washed once with a physiological saline. Then, the dye was extracted with 0.001 N hydrochloric acid/30% ethanol and the absorbance at 550 nm was determined with a microplatereader.

Assay [2] has as its system estrogen-dependent human mammary cancer MCF-7. In words: Antitumor effects against estrogen-dependent human mammary cancer MCF-7 transplanted in nude mice. The assay is classed as in vivo, female BALB/c-nu/nu mouse. Particulars: Mus musculus, MCF7, po; dose 25 mg/kg orally, 5 days per week for two weeks; ratio of V/V0 of treated group to control group; judgement date day 14 to 25, differs per compound; read-out: T/C. An excerpt:
Antitumor effects against estrogen-dependent human mammary cancer MCF-7
The tumor fragment (2 mm x 2 mm x 2mm) of human hormone dependent mammary cancer MCF-7 was transplanted subcutaneously in the flank of female BALB/c-nu/nu mouse (Nihon Crea), 7 to 9 weeks age. […] Mice having the tumor volume 25 to 200 mm^3 were selected 3 to 4 weeks after transplantation, and the test compounds were orally administered repeatedly to the groups (5 animals per group) for 5 days per a week, for total two weeks. In addition, estradiol propionate was administered again on the date of initial administration of the test compounds. Length and width of the tumor were determined every day, and the tumor volumes were calculated by means of ellipsoid approximation according to the following equation: […] [formula]
The tumor volume at initial administration (V0) and on the day of judgement (V) was calculated, and the tumor growth rate (V/V0) was calculated. T/C value was obtained as the ratio of V/V0 value of treated group relative to that of control group.

Assay [3] has as its system Mature female BALB/c mice. In words: Effect on uterus weight of mature mouse (anti-estrogenic activity). The assay is classed as in vivo. Particulars: dose 25 mg/kg, orally, repeatedly for 4 days; uteri isolated after 5 days; not treated group 106 mg. The protocol: The effect against the decrease in uterus weight of mature mouse
Mature female BALB/c mice, 9 weeks age, were divided into two groups (6 animals per group). The test compounds were repeatedly administered orally to one group for 4 days. After 5 days, the uteri were isolated and the weight thereof was measured.

In the case of `Nc1ccc(-c2cc(=O)c3c(N)c(F)c(COC(=O)CN4CCOCC4)c(F)c3o2)cc1F` [Compound 11, 5-Amino-2-(4-amino-3-fluorophenyl)-6,8-difluoro-7-morpholinoacetoxymethyl-4H-1-benzopyran-4-one], the IC50 – broadly, the midpoint of a concentration-inhibition curve – in assay [1] was 17 nM. Also, the response vs control in vivo at 25 mg/kg in assay [2] amounted to 4.4%.
In turn, `CN(C)CC(=O)OCc1c(F)c(N)c2c(=O)cc(-c3ccc(N)c(F)c3)oc2c1F` [Compound 6, 5-Amino-2-(4-amino-3-fluorophenyl) -7-dimethylaminoacetoxymethyl-6,8-difluoro-4H-1-benzopyran-4-one] gave an IC50 in assay [1] of 26 nM. In assay [2], the response vs control in vivo at 25 mg/kg is 1.2%. This compound also yielded a weight of uterus in assay [3] of 67 mg.
Take `C=CCOC(=O)OCc1c(F)c(N)c2c(=O)cc(-c3ccc(N)c(F)c3)oc2c1F` [Compound 15, 7-Allyloxycarbonyloxymethyl-5-amino-2-(4-amino-3-fluorophenyl)-6,8-difluoro-4H-1-benzopyran-4-one]: 81 nM corresponded to half-maximal inhibition in assay [1] (IC50).
As for `Nc1ccc(-c2cc(=O)c3c(N)c(F)c(COC(=O)CN4CCCCC4)c(F)c3o2)cc1F` [Compound 9, 5-Amino-2-(4-amino-3-fluorophenyl)-6,8-difluoro-7-piperidinoacetoxymethyl-4H-1-benzopyran-4-one], the IC50 in assay [1] came to 33 nM. For the same compound, in assay [2], the response vs control in vivo at 25 mg/kg turned out to be 4.2%.
Turning to `CN(C)CCN(C)CC(=O)OCc1c(F)c(N)c2c(=O)cc(-c3ccc(N)c(F)c3)oc2c1F` [Compound 13, 5-Amino-2-(4-amino-3-fluorophenyl)-7-[N-(2-dimethylaminoethyl)-N-methylamino)acetoxymethyl-6,8-difluoro-4H-1-benzopyran-4-one], the response vs control in vivo at 25 mg/kg in assay [2] was determined as 2.2%.
With `CN1CCN(C(=O)OCc2c(F)c(N)c3c(=O)cc(-c4ccc(N)c(F)c4)oc3c2F)CC1` [Compound 2, 5-Amino-2-(4-amino-3-fluorophenyl)-6,8-difluoro-7-(4-methylpiperazinyl)carbonyloxymethyl-4H-1-benzopyran-4-one], it took 230 nM to reach half-maximal inhibition in assay [1] (IC50).
On to `CCN(CC)C(=O)OCc1c(F)c(N)c2c(=O)cc(-c3ccc(N)c(F)c3)oc2c1F` [Compound 1, 5-Amino-2-(4-amino-3-fluorophenyl)-7-diethylcarbamoyloxymethyl-6,8-difluoro-4H-1-benzopyran-4-one], for which, in assay [1], 350 nM corresponded to half-maximal inhibition (IC50).
`Nc1ccc(-c2cc(=O)c3c(N)c(F)c(COC(=O)CN4CCC(O)CC4)c(F)c3o2)cc1F` [Compound 12, 5-Amino-2-(4-amino-3-fluorophenyl) -6,8-difluoro-7-(4-hydroxypiperidino)acetoxymethyl-4H-1-benzopyran-4-one] had an IC50 in assay [1] of 18 nM. For the same compound, the response vs control in vivo at 25 mg/kg in assay [2] came to 3.5%.
The like results for `CN(C)CCCC(=O)OCc1c(F)c(N)c2c(=O)cc(-c3ccc(N)c(F)c3)oc2c1F` [Compound 8, 5-A-mino-2-(4-amino-3-fluorophenyl)-7-(4-dimethylaminobutyryl)oxymethyl-6,8-difluoro-4H-1-benzopyran-4-one] were, in that order, 29 nM and 15%.
`CN1CCN(CC(=O)OCc2c(F)c(N)c3c(=O)cc(-c4ccc(N)c(F)c4)oc3c2F)CC1` [Compound 10, 5-Amino-2-(4-amino-3-fluorophenyl)-6,8-difluoro-7-(4-methylpiperazinyl)acetoxymethyl-4H-1-benzopyran-4-one] registered an IC50 in assay [1] of 87 nM. Besides, in assay [2], the response vs control in vivo at 25 mg/kg worked out at 7%.
In assay [1], `COC(=O)CNCC(=O)OCc1c(F)c(N)c2c(=O)cc(-c3ccc(N)c(F)c3)oc2c1F` [Compound 14, 5-Amino-2-(4-amino-3-fluorophenyl)-6,8-difluoro-7-methoxycarbonylmethylaminoacetoxymethyl-4H-1-benzopyran-4-one] gave an IC50 of 13 nM. In assay [2], the response vs control in vivo at 25 mg/kg amounted to 1.3%.
The compound `CN(C)CCC(=O)OCc1c(F)c(N)c2c(=O)cc(-c3ccc(N)c(F)c3)oc2c1F` [Compound 7, 5-Amino-2-(4-amino-3-fluorophenyl)-7-(3-dimethylaminopropionyl) oxymethyl-6,8-difluoro-4H-1-benzopyran-4-one] yielded an IC50 in assay [1] of 19 nM. The response vs control in vivo at 25 mg/kg in assay [2] was 4.1%.
